Where two headings read alike, the source gives them in different places. One block for each compound: values may come before it.
Legend:
Type in all cases: cell-based
786-0 cells = experiment: 786-0 tumor cell growth inhibition (CellTiterGlo); settings: 786-0, Renal cell carcinoma, 4 days culture
Experimental: (§2) First, EJ-1, 786-0, MKN1, OST, PC-3, PK-1, LK-2, G-361, TFK-1, MRK-nu-1 were cultured in RPMI1640 medium supplemented with 10% calf serum at 37° C. under 5% CO2 atmosphere while maintaining log phase. The cells were recovered by a conventional EDTA trypsin treatment, and centrifuged at 1,700 rpm, 4° C. for 5 min. The supernatant was removed, and suspended in RPMI1640 medium supplemented with 10% calf serum to 500 cells/50 μl. On the other hand, 10 mM stock solution of compound 7 which is a bisphosphonic acid POM ester derivative was serially diluted 2-fold from 200 pM. In addition, 10 mM stock solution of compound 14 which is bisphosphonic acid was serially diluted 2-fold from 2 mM. Then, the cell suspension (50 μl, 500 cells) and the compound solution (50 μl) were added to a flat-bottomed 96 well plate and cultured at 37° C. under 5% CO2 atmosphere for 4 days. Then, 100 μl of CellTiterGlo solution was added, and the mixture was pipetted 10 strokes, and transferred to a 96 well OptiPlate. After standing at room temperature for 10 min, the luminescence was measured by a luminometer and IC50 value was calculated.

PC-3 cells = experiment: PC-3 tumor cell growth inhibition (CellTiterGlo); settings: PC-3, Prostate cancer, 4 days culture
Experimental: as §2

G-361 cells = experiment: G-361 tumor cell growth inhibition (CellTiterGlo); settings: G-361, Melanoma, 4 days culture
Experimental: as §2

MOLT-3 cells = experiment: MOLT-3 tumor cell growth inhibition (CellTiterGlo); settings: MOLT-3, Acute lymphoblastic leukemia, 4 days culture
Experimental: (§3) To quantitatively study an action of compound 7, which is a bisphosphonic acid POM ester derivative, on various hematologic tumor-derived lymphoma and myeloidic leukemia cells, the concentration of a compound that inhibits cell proliferation to half was calculated as IC50, and a direct antitumor effect was studied from the value thereof. […] First, MOLT-4, THP-1, SCC-3, PEER, RAMOS-RA1, C1R, MOLT-3, Raji, U937, K562, Daudi were cultured in RPMI1640 medium supplemented with 10% calf serum at 37° C. under 5% CO2 atmosphere while maintaining log phase. The cells were recovered, and centrifuged at 1,700 rpm, 4° C. for 5 min. The supernatant was removed, and suspended in RPMI1640 medium supplemented with 10% calf serum to 500 cells/50 μl. On the other hand, 10 mM stock solution of compound 7 which is a bisphosphonic acid POM ester derivative was serially diluted 2-fold from 200 μM. In addition, 10 mM stock solution of compound 14 which is bisphosphonic acid was serially diluted 2-fold from 2 mM. Then, the cell suspension (50 μl, 500 cells) and the compound solution (50 μl) were added to a flat-bottomed 96 well plate and cultured at 37° C. under 5% CO2 atmosphere for 4 days. Then, 100 μl of CellTiterGlo solution was added, and the mixture was pipetted 10 strokes, and transferred to a 96 well OptiPlate. […]

Raji cells = experiment: Raji tumor cell growth inhibition (CellTiterGlo); settings: Burkitt's lymphoma, 4 days culture
Experimental: as §3

Daudi cells = experiment: Daudi tumor cell growth inhibition (CellTiterGlo); settings: Burkitt's lymphoma, 4 days culture
Experimental: as §3

MKN1 cells / γδ T cells = experiment: TNF-α production from γδ T cells stimulated by compound-pretreated MKN1 cells; settings: MKN1, Gastric cancer, 4 hr pretreatment, 16 hr with γδ T cells, read-out: TNF-α50
Experimental: (§1) Since the above-mentioned results of Experimental Example confirm that the activity of bisphosphonic acids becomes high by POM esterification in various tumor cells, the TNF-α production induction ability of more number of tumor cells was quantitatively studied. […] Thereto was added a solution (500 μl) of compound 7 obtained by serially diluting 10 mM stock solution 10-fold from 20 μM, or a solution (500 μl) of compound 14 obtained by serially diluting 10 mM stock solution 10-fold from 200 μM, and the cells were suspended well. These conical tubes were stood at 37° C. for 4 hr, and the cells were washed 3 times with 5 ml of culture medium. To these cells was added 500 μl of medium, and the cells were suspended well. […] The cell culture medium was suspended well, and the plate was centrifuged at 1,700 rpm, 4° C. for 2 min and the culture supernatant (150 μl) was taken and placed in another round-bottomed 96 well plate. The plate was frozen at −80° C. overnight, left standing at room temperature for 1 hr, stirred well and 100 μl thereof was subjected to ELISA of TNF-α. The content of TNF-α was calculated from the analytical curve of TNF-α. These were performed in triplicate, and TNF-α50 of bisphosphonic acid POM ester derivative (compound 7) and bisphosphonic acid (compound 14) was calculated and summarized in Table 8.

PC-3 cells / γδ T cells = experiment: TNF-α production from γδ T cells stimulated by compound-pretreated PC-3 cells; settings: PC-3, Prostate cancer, 4 hr pretreatment, 16 hr with γδ T cells, read-out: TNF-α50
Experimental: as §1

PK1 cells / γδ T cells = experiment: TNF-α production from γδ T cells stimulated by compound-pretreated PK1 cells; settings: PK1, Pancreatic cancer, 4 hr pretreatment, 16 hr with γδ T cells, read-out: TNF-α50
Experimental: as §1

G-361 cells / γδ T cells = experiment: TNF-α production from γδ T cells stimulated by compound-pretreated G-361 cells; settings: G-361, Melanoma, 4 hr pretreatment, 16 hr with γδ T cells, read-out: TNF-α50
Experimental: as §1

U937 cells / γδ T cells = experiment: TNF-α production from γδ T cells stimulated by compound-pretreated U937 cells; settings: U937, Histiocytic lymphoma, 4 hr pretreatment, 16 hr with γδ T cells, read-out: TNF-α50
Experimental: as §1

C1R cells / γδ T cells = experiment: TNF-α production from γδ T cells stimulated by compound-pretreated C1R cells; settings: B cell lymphoma, 4 hr pretreatment, 16 hr with γδ T cells, read-out: TNF-α50
Experimental: as §1

SCC-3 cells / γδ T cells = experiment: TNF-α production from γδ T cells stimulated by compound-pretreated SCC-3 cells; settings: SCC-3, Non-Hodgkin's lymphoma, 4 hr pretreatment, 16 hr with γδ T cells, read-out: TNF-α50
Experimental: as §1

[1] = system: MOLT-4 cells / γδ T cells; experiment: TNF-α production from γδ T cells stimulated by compound-pretreated MOLT-4 cells; settings: MOLT-4, Acute lymphoblastic leukemia, 4 hr pretreatment, 16 hr with γδ T cells, read-out: TNF-α50
Experimental: as §1

PEER cells / γδ T cells = experiment: TNF-α production from γδ T cells stimulated by compound-pretreated PEER cells; settings: T cell acute lymphocytic leukemia, 4 hr pretreatment, 16 hr with γδ T cells, read-out: TNF-α50
Experimental: as §1

THP-1 cells / γδ T cells = experiment: TNF-α production from γδ T cells stimulated by compound-pretreated THP-1 cells; settings: THP-1, Acute monocytic leukemia, 4 hr pretreatment, 16 hr with γδ T cells, read-out: TNF-α50
Experimental: as §1

[2] = system: HMC-1-8 cells / γδ T cells; experiment: TNF-α production from γδ T cells stimulated by compound-pretreated HMC-1-8 cells; settings: HMC-1-8, Mammary carcinoma, 4 hr pretreatment, 16 hr with γδ T cells, read-out: TNF-α50
Experimental: as §1

[3] = system: MRK-nu-1 cells / γδ T cells; experiment: TNF-α production from γδ T cells stimulated by compound-pretreated MRK-nu-1 cells; settings: MRK-nu-1, Mammary carcinoma, 4 hr pretreatment, 16 hr with γδ T cells, read-out: TNF-α50
Experimental: as §1

Compound: CC(C)(C)C(=O)OCOP(=O)(OCOC(=O)C(C)(C)C)C(CNc1nccs1)P(=O)(OCOC(=O)C(C)(C)C)OCOC(=O)C(C)(C)C [Compound 7, tetrakispivaloyloxymethyl 2-(thiazol-2-ylamino) ethylidene-1,1-bisphosphonate]
IC50 (786-0 cells): 880 nM
IC50 (PC-3 cells): 220 nM
IC50 (G-361 cells): 120 nM
IC50 (MOLT-3 cells): 130 nM
IC50 (Raji cells): 270 nM
IC50 (Daudi cells): 430 nM
EC50 (MKN1 cells / γδ T cells): 560 nM
EC50 (PC-3 cells / γδ T cells): 65 nM
EC50 (PK1 cells / γδ T cells): 450 nM
EC50 (G-361 cells / γδ T cells): 63 nM
EC50 (U937 cells / γδ T cells): 60 nM
EC50 (C1R cells / γδ T cells): 530 nM
EC50 (SCC-3 cells / γδ T cells): 81 nM
EC50 [1]: 59 nM
EC50 (PEER cells / γδ T cells): 83 nM
EC50 (THP-1 cells / γδ T cells): 300 nM
EC50 [2]: 920 nM
EC50 [3]: 180 nM

IC50 (786-0 cells; Homo sapiens, 96 h): 25000 nM
IC50 (PC-3 cells; Homo sapiens, 96 h): 100000 nM
IC50 (G-361 cells; Homo sapiens, 96 h): 20000 nM
IC50 (MOLT-3 cells; Homo sapiens, 96 h): 180000 nM
IC50 (Raji cells; Homo sapiens, 96 h): 120000 nM
IC50 (Daudi cells; Homo sapiens, 96 h): 76000 nM
EC50 (MKN1 cells / γδ T cells; Homo sapiens, MKN-1): 89000 nM
EC50 (PC-3 cells / γδ T cells; Homo sapiens): 77000 nM
EC50 (PK1 cells / γδ T cells; PK-1): > 100000 nM
EC50 (G-361 cells / γδ T cells; Homo sapiens): 5100 nM
EC50 (U937 cells / γδ T cells; Homo sapiens, U-937): > 100000 nM
EC50 (C1R cells / γδ T cells): > 100000 nM
EC50 (SCC-3 cells / γδ T cells; Homo sapiens): > 100000 nM
EC50 ([1]; Homo sapiens): > 100000 nM
EC50 (PEER cells / γδ T cells): > 100000 nM
EC50 (THP-1 cells / γδ T cells; Homo sapiens): > 100000 nM
EC50 ([2]; T-cell): > 100000 nM
EC50 ([3]; Homo sapiens): > 100000 nM
Compound: O=P(O)(O)C(CNc1nccs1)P(=O)(O)O [Compound 14, 2-(thiazol-2-ylamino)ethylidene-1,1-bisphosphonic Acid, reference compound]
